Measured values published in US7521236B2, “Sulfur-oxidizing plant growth promoting rhizobacteria for enhanced canola performance” (priority 2002, dated 2009).

Experiments:
Format in all cases: in vivo
[1] = tested on: canola plants; assay: Growth room experiment in sulfur deficient Melfort, SK soil: biomass and yield; settings: 105 DAP
Method: (§1) Effects of bacterial inoculation on plant growth parameters were studied in a growth room with the four screened S-oxidizing strains (RAY12, RAY28, RAY132 and RAY209). More emphasis was given on plant growth characteristics including canola seed yield. Growth room assay was conducted with a sulfur deficient field soil, collected near Melfort, Saskatchewan, and was a loam (pH 7.8, electrical conductivity (mS/cm) 0.2 with following nutrient levels in ppm. nitrate nitrogen 7.3, phosphorous 14.6, potassium 187.1 and sulfur 9.5. Rhizobacterial strains RAY12, RAY28, RAY132 and RAY209 were used for the canola seed inoculation. The experiment was consisting of eight bacterial treatments along with three controls (control—no sulfur; elemental S control; and sulfate S control) each having three replications. One and half kg sieved soil (<5 mm mesh) was added to 16-cm plastic pots and the pots were kept in a growth room (22° C., 16 h light; 18° C., 8 h dark). Five seeds were planted in each of the pots and seedlings were thinned to one per pot after emergence. Daily watering to constant weight ensured similar matric potential between the pots. Canola plants were harvested at maturity (105 DAP) and stalk dry weight, pod number, pod weight and seed weight or yield determined. In another growth room experiment done in similar manner as previous one, canola seed yield, and, seed macronutrients (S, N, P, K, Ca and Mg) and micronutrients (Zn, B, Cu and Fe) uptake were determined.

[2] = tested on: canola plants; assay: Second growth room experiment: seed yield and seed nutrient uptake; settings: per plant; for B uptake / Ca uptake / Cu uptake / K uptake / Mg uptake / N uptake / P uptake / S uptake / Zn uptake: seed
Method: as §1

[3] = tested on: canola; assay: Field trial 2002, Dauphin, MB; settings: canola seed, Dauphin field site
Method: In 2002, field trials were carried out using three canola PGPR strains. The canola trials were planted through commercial seed planter using bacteria inoculated powdered peat-based carrier material coated seeds. The cultivar used was the same as 2001. All field trials were randomized complete block design having each plot size of 6 m×1.5 m, with nine bacterial treatments along with three controls, all with six replicates. […] Plots were harvested at maturity, seed was collected and cleaned, and yield was measured based on 8.5% seed moisture. In addition, canola seed macronutrients (S, N, P, K, Ca and Mg) and micronutrients (Zn, Mn, Cu and Fe) uptake were also determined.

[4] = tested on: canola plants; assay: Second growth room experiment: seed yield and seed nutrient uptake; settings: seed, per plant

Molecule | pod no. [1] | pod wt. [1] | seed wt. [1] | stalk dry wt. [1] | seed yield [2] | B uptake [2] | Ca uptake [2] | Cu uptake [2] | K uptake [2] | Mg uptake [2] | N uptake [2] | P uptake [2] | S uptake [2] | Zn uptake [2] | Ca uptake [3] | Cu uptake [3] | Fe uptake [3] | K uptake [3] | Mg uptake [3] | Mn uptake [3] | also measured
sulfate sulfur [SO4] | 78 NO./PLANT | 4.20 G/PLANT | 1.71 G/PLANT | 4.56 G/PLANT | 3.11 g | 0.13 µg | 11.71 mg | 0.03 µg | 27.52 mg | 12.12 mg | 116.30 mg | 28.24 mg | 15.76 mg | 1.72 µg | 5.02 kg/ha | 2.61 g/ha | 68.20 g/ha | 9.09 kg/ha | 4.14 kg/ha | 37.22 g/ha | N uptake [3]: 39.74 kg/ha; P uptake [3]: 8.71 kg/ha; S uptake [3]: 5.10 kg/ha; Zn uptake [3]: 51.32 g/ha; Mn uptake [4]: 1.22 µg
[S] [ES, elemental sulfur] | 58 NO./PLANT | 3.17 G/PLANT | 1.13 G/PLANT | 3.84 G/PLANT | 2.92 g | 0.09 µg | 12.10 mg | 0.03 µg | 28.42 mg | 11.37 mg | 116.30 mg | 28.71 mg | 18.66 mg | 2.08 µg | 4.50 kg/ha | 2.17 g/ha | 57.17 g/ha | 7.60 kg/ha | 3.51 kg/ha | 28.97 g/ha | N uptake [3]: 32.91 kg/ha; P uptake [3]: 7.54 kg/ha; S uptake [3]: 4.13 kg/ha; Zn uptake [3]: 40.05 g/ha; Mn uptake [4]: 1.14 µg
